Tests used:
[1] = Metabolite quantitation in mouse plasma (QQQ-LC/MS); type: in vivo
Method: Preparation of plasma samples for LC-MS analysis. Plasma was collected from mice via a submandibular bleed into lithium heparin tubes (BD, 365985) and immediately transferred onto ice. The blood was centrifuged at 4° C. at 5000 rpm for 5 min and the top layer of plasma was aliquoted and frozen at −80 °C. To extract polar metabolites from plasma for LC-MS analysis, 150 μl of a 2:1 mixture of acetonitrile/methanol was added to 50 μl of plasma. The mixture was centrifuged at 4° C. for 10 min at 15,000 rpm and the supernatant was transferred to a LC-MS vial.
Targeted metabolomics. Targeted measurements were performed using an Agilent 6470 triple quadrupole LC-MS instrument. MS analysis was performed using AJS in negative mode. The AJS source parameters were set as follows: the dry gas temperature was set at 250° C. with a gas flow of 12 l/min and the nebulizer pressure at 25 psi; the sheath gas temperature was set to 300° C. with the sheath gas flow set at 12 l/min; and the capillary voltage was set to 3,500 V. Separation of polar metabolites was performed as described above in the ‘Untargeted measurements of metabolites by LC-MS’ section. Multiple reaction monitoring was performed for the indicated metabolites with the listed dwell times, fragmentor voltage, collision energies, cell accelerator voltages and polarities. Quantification of the endogenous metabolite concentrations were performed by generating a standard curve with known concentrations of each metabolite. Metabolite standards were analyzed alongside the plasma samples using the same targeted triple quadrupole LC/MS method. A calibration standard curve generated from the metabolite standard concentrations and total peak areas were used to calculate the concentrations of each endogenous metabolite. The dilution of the plasma during the sample preparation was also taken into account for the quantification.

primary cardiomyocytes = assay: Keto amino acid production in BHB-treated cardiomyocytes; type: cell-based, human; settings: BHB 25 mM, overnight
Method: Human induced pluripotent stem cells (iPSCs) culture and cardiac differentiation into cardiomyocytes (CMs). Human iPSCs from healthy donors were provided by Stanford Cardiovascular Institute Biobank and cultured in the E8 medium. When iPSCs were grown to 95% confluence, the E8 medium was replaced with RPMI 1640 (GIBCO) supplemented with B27 minus insulin (GIBCO) and 5 µM CHIR-99021 (Selleck Chemicals) to start cardiac differentiation at day 0. On day 2, the medium was replaced with RPMI-B27 minus insulin. On day 3, the medium was changed to RPMI-B27 minus insulin containing 5 μM IWR-1 (Selleck Chemicals) and was maintained for 48 hours. On day 5, the medium was changed back to RPMI-B27 minus insulin and was maintained for 48 hours. Then, the cells were incubated with complete CM medium consisting of RPMI 1640 medium and B27 supplement plus insulin (GIBCO). On day 12, the medium was replaced with RPMI-B27 without D-glucose (GIBCO) for metabolic purification of CMs for 4 days. Then, the medium was changed to the complete CM medium and replaced every 2 days. Human iPSC-CMs were dissociated by TrypLE Express (GIBCO) and re-plated on Matrigel-coated 12-well plate for further experiments. Cultures were maintained at 37° C. in a humidified incubator with 5% (v/v) CO^2.
Cellular enzyme activity assays. Cells were plated in 12-well plates at 70-80% confluence. […]

DIO mice [2] = assay: Food, kaolin and water intake in DIO mice; type: in vivo, mouse; settings: 50 mg/kg IP, single; 18 h
Method: Kaolin and water intake assays. DIO mice were individually housed and allowed ad libitum access to kaolin pellets for 5 days before the start of the experiment. Mice were also provided high-fat diet and had ad libitum access to water. On the day of the experiment, kaolin and high-fat diet pellets were replaced with fresh pellets. Mice were then injected with either vehicle or BHB-Phe (50 mg/kg, IP), and high-fat diet, kaolin and water intake were measured after 18 h.

DIO mice [3] = assay: Plasma ghrelin, leptin and GDF-15 in DIO mice; type: in vivo, mouse; settings: 50 mg/kg IP, single; 1 h
Method: Leptin, ghrelin and GDF-15 measurements. Plasma was collected from DIO mice 1 h after the administration of BHB-Phe (50 mg/kg, IP) or vehicle. ELISA kits for leptin (Crystal Chem 90030), ghrelin (Cayman Chemicals 10006307) and GDF-15 (R&D Systems DY6385-05) were used following manufacturer's instructions.

CC(O)CC(=O)N[C@@H](Cc1ccccc1)C(=O)O (stereo partly shown) [BHB-Phe, N-betahydroxybutyryl-phenylalanine]
effect of acute treadmill running on level ([1]; 15 min running): unchanged
elevation after ketone ester administration ([1]; 30 min after ketone drink, 3 mg/g): > 10 fold
effect of strenuous and prolonged exercise on level ([1]; 30 min strenuous running): robust co-induction
keto amino acid production by cardiomyocytes (primary cardiomyocytes): minor amount
food intake (kaolin/water experiment) (DIO mice [2]): suppressed food intake
kaolin consumption (DIO mice [2]): without affecting water intake or kaolin consumption
water intake (DIO mice [2]): without affecting water intake
plasma GDF15 (DIO mice [3]): unaltered
plasma ghrelin (DIO mice [3]): unaltered
plasma leptin (DIO mice [3]): unaltered
